Measurements published in the supplement of paper PMC10307832.

What was measured:
Test in all cases: relative viability (nuclei count vs DMSO), 5 days (fraction); higher = more cells survive
Selisistat + Vorinostat = compound: C1CC(C2=C(C1)C3=C(N2)C=CC(=C3)Cl)C(=O)N [Selisistat] + O=C(CCCCCCC(=O)Nc1ccccc1)NO [Vorinostat] (partner 1 µM)
In short: (§1)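 Relative viability is defined as nuclei in treated wells over nuclei in vehicle wells. Duplicate plates were run and medians reported. Lung cancer cell lines in 1536-well plates were dosed by pin tool one day after seeding, with one drug or with a fixed anchor-drug dose plus five library-drug doses (not always all listed) in √10 steps, and nuclei were counted after 5 days.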

Selisistat + Decitabine = compound: C1CC(C2=C(C1)C3=C(N2)C=CC(=C3)Cl)C(=O)N [Selisistat] + Nc1ncn([C@H]2C[C@H](O)[C@@H](CO)O2)c(=O)n1 [Decitabine] (partner 2 µM)
In short: as §1

Serdemetan + Alpelisib = compound: c1ccc2c(CCNc3ccc(Nc4ccncc4)cc3)c[nH]c2c1 [Serdemetan] + Cc1nc(NC(=O)N2CCC[C@H]2C(N)=O)sc1-c1ccnc(C(C)(C)C(F)(F)F)c1 [Alpelisib] (partner 2 µM)
In short: as §1

Serdemetan + Lapatinib = compound: c1ccc2c(CCNc3ccc(Nc4ccncc4)cc3)c[nH]c2c1 [Serdemetan] + CS(=O)(=O)CCNCc1ccc(-c2ccc3ncnc(Nc4ccc(OCc5cccc(F)c5)c(Cl)c4)c3c2)o1 [Lapatinib] (partner 2 µM)
In short: as §1

| Cell Line | relative viability (Selisistat + Vorinostat; first compound 0.4 µM) | relative viability (Selisistat + Vorinostat; first compound 1.265 µM) | relative viability (Selisistat + Vorinostat; first compound 4 µM) | relative viability (Selisistat + Vorinostat; first compound 12.65 µM) | relative viability (Selisistat + Vorinostat; first compound 40 µM) | relative viability (Selisistat + Decitabine; first compound 0.4 µM) | relative viability (Selisistat + Decitabine; first compound 1.265 µM) | relative viability (Selisistat + Decitabine; first compound 4 µM) | relative viability (Selisistat + Decitabine; first compound 12.65 µM) | relative viability (Selisistat + Decitabine; first compound 40 µM) | relative viability (Serdemetan + Alpelisib; first compound 0.04 µM) | relative viability (Serdemetan + Alpelisib; first compound 0.1265 µM) | relative viability (Serdemetan + Alpelisib; first compound 0.4 µM) | relative viability (Serdemetan + Alpelisib; first compound 1.265 µM) | relative viability (Serdemetan + Alpelisib; first compound 4 µM) | relative viability (Serdemetan + Lapatinib; first compound 0.04 µM) | relative viability (Serdemetan + Lapatinib; first compound 0.1265 µM) | relative viability (Serdemetan + Lapatinib; first compound 0.4 µM) | relative viability (Serdemetan + Lapatinib; first compound 1.265 µM) | relative viability (Serdemetan + Lapatinib; first compound 4 µM) |
| --- | --- | --- | --- | --- | --- | --- | --- | --- | --- | --- | --- | --- | --- | --- | --- | --- | --- | --- | --- | --- |
| 201T | 1.07 | 0.98 | 0.85 | 1 | 0.995 | 0.915 | 0.816 | 0.845 | 0.877 | 0.913 | 0.965 | 0.995 | 1.01 | 0.939 | 0.883 | 0.976 | 0.943 | 1.04 | 0.937 | 0.94 |
| A549 |  |  |  |  |  | 0.257 | 0.209 | 0.232 |  | 0.393 | 0.753 | 0.722 | 0.727 | 0.569 | 0.252 | 1.06 | 0.916 | 0.901 | 0.953 | 0.455 |
| A-427 | 0.905 | 0.934 |  | 0.881 | 0.875 | 0.578 | 0.575 |  | 0.655 | 0.637 | 1.05 | 1.05 | 1.1 | 0.833 | 0.561 | 0.996 | 0.987 | 1.1 | 1.02 | 0.749 |
| ABC-1 | 1.38 | 1.28 |  | 1.09 | 1.19 | 0.881 | 1.02 |  | 0.86 | 1.08 | 1.16 | 1.14 | 0.965 | 0.812 | 0.486 | 1.08 | 1.07 | 1.25 |  | 0.717 |
| BEN | 0.625 | 0.663 | 0.545 | 0.636 | 0.657 | 0.923 | 0.556 | 0.479 | 0.707 | 0.691 | 0.929 | 1.02 | 0.987 | 0.99 | 0.824 | 0.623 | 0.704 | 0.592 | 0.359 | 0.556 |
| CAL-12T | 0.66 | 0.727 | 1.05 | 0.766 | 0.768 |  |  |  |  |  | 1.11 | 1.5 | 1.23 |  | 1.18 |  | 0.859 |  | 0.599 | 0.579 |
| COR-L23 | 0.499 | 0.49 | 0.577 | 0.515 | 0.573 | 0.596 | 0.423 | 0.484 | 0.436 | 0.411 | 0.788 | 0.767 | 0.763 | 0.821 | 0.703 | 0.916 | 0.924 | 1.03 | 0.422 | 0.78 |
| COR-L 105 | 0.892 | 0.846 | 0.876 | 0.964 | 1.21 | 0.664 | 0.731 | 0.587 | 0.635 | 0.598 | 0.906 | 1.08 | 0.922 | 1.04 | 0.865 | 0.384 | 0.372 | 0.284 | 0.335 | 0.363 |
| Calu-6 |  |  |  |  |  |  |  |  |  |  | 0.934 | 1.01 | 0.929 | 0.788 | 0.674 | 1.13 | 0.99 | 0.989 | 0.887 | 0.68 |
| ChaGo-K-1 | 0.72 | 0.728 | 0.73 | 0.729 | 0.842 | 0.486 | 0.511 | 0.482 | 0.491 | 0.502 |  |  |  |  |  |  |  |  |  |  |
| EBC-1 |  |  |  |  |  |  |  |  |  |  | 0.739 | 0.865 | 0.752 | 0.793 | 0.623 | 0.23 | 0.238 | 0.218 | 0.21 | 0.203 |
| EKVX | 0.708 | 0.757 |  | 0.903 | 0.655 | 0.415 | 0.355 | 0.339 | 0.367 | 0.368 | 0.876 | 0.911 | 0.804 | 0.676 | 0.619 | 0.193 | 0.19 | 0.201 | 0.18 | 0.168 |
| EMC-BAC-2 | 0.487 | 0.515 | 0.0984 | 0.12 | 0.12 | 1.11 | 0.897 | 0.931 | 0.933 | 0.683 | 0.727 | 0.712 | 0.727 | 0.662 | 0.548 | 0.909 | 0.899 | 0.92 | 0.732 | 0.841 |
| EPLC-272H | 0.453 | 0.729 | 0.52 | 0.529 | 0.693 | 0.365 | 0.389 |  | 0.382 | 0.364 | 0.968 | 0.834 | 0.881 | 0.647 | 0.843 | 1.01 | 0.905 | 1.07 | 0.618 | 0.944 |
| H3255 | 0.885 | 0.93 | 0.822 | 0.834 | 0.872 | 0.624 | 0.628 | 0.562 | 0.578 | 0.61 | 0.657 | 0.693 | 0.585 | 0.683 | 0.525 | 0.222 | 0.229 | 0.258 | 0.251 | 0.186 |
| HARA | 0.436 | 0.552 | 0.529 | 0.756 | 0.85 | 0.777 | 0.529 |  | 0.48 | 0.647 | 0.783 | 0.819 | 0.741 |  | 0.391 | 0.653 | 0.773 | 0.68 |  | 0.604 |
